Structures can show the parent of a compound that is named as a salt. Where two headings read alike, the source gives them in different places.
Target: γ-secretase (Cricetulus griseus, UniProt G3HNF2)
Assay: Cell-Based γ-Secretase Assay with ELISA Readout (production of amyloid beta protein Aβ(1-42))
Conditions: human WT-APP overexpressing CHO cells, ~24 h incubation, Aβ(1-42) ELISA
[1] = read-out: Aβ 42B IC50 (nM) (Geometric Mean of 2-5 Determinations), Table 5, geometric mean of 2-5 determinations

Procedure: The ability of compounds to modulate production of amyloid beta protein Aβ(1-42) was determined using human WT-APP overexpressing CHO cells. Cells were plated at 22,000 cells/100 μL well in 96 well tissue culture treated, clear plates (Falcon) in DMEM/F12 based medium and incubated for 24 h at 37° C. […] Compounds were added in fresh medium to achieve 1% final DMSO. Appropriate vehicle or inhibitor controls were added into control wells individually to obtain minimum or maximum inhibition values, respectively, for the assay signal window before the plates were incubated for ˜24 h at 37° C. This procedure produces conditioned media in each well which is tested for Aβ(1-42) levels in the ELISA detection step described next. The remaining cell cultures in each well are also tested for cell toxicity as described below.
Coating of ELISA assay plates was initiated by addition of 50 μL/well of an in-house Aβ(1-42) specific antibody at (3 μg/mL) in 0.1 M NaHCO3 (pH 9.0) into black 384-well Maxisorp® plates (Nunc) and incubated overnight at 4° C. The capture antibody was then aspirated from the ELISA assay plates and plates were washed either 2×100 uL with a Matrical Squirt plate washer, or 3×90 uL with a Thermo Combi, using Wash Buffer (Dulbecco's PBS, 0.05% Tween 20). 90 μL/well of Blocking Buffer (Dulbecco's PBS, 1.0% BSA (Sigma A7030) was then added to plates. Ambient temperature incubation was allowed to proceed for a minimum of 2 h. Blocking buffer was then removed and 20 μL/well Assay Buffer (Dulbecco's PBS, 1.0% BSA (Sigma A7030), 0.05% Tween 20) was then added. At this point, 35 uL (40 uL prior to August, 2012) (in duplicate) of experimental conditioned media (described above) were transferred into wells of the blocked ELISA plates containing the capture antibody, followed by overnight incubation at 4° C. Cell toxicity was also measured in the corresponding remaining cells after removal of the conditioned media for the Aβ(1-42) assay by a colorimetric cell proliferation assay (CellTiter 96® AQueous One Solution Cell Proliferation Assay, Promega) according to the manufacturer's instructions.
After overnight incubation of the ELISA assay plates at 4° C., unbound Aβ peptides were removed via either 2×100 uL washes with a Matrical Squirt plate washer, or 3×90 uL washes with a Thermo Combi, using Wash Buffer. Europium (Eu) labeled (custom labeled, PerkinElmer) Aβ(1-16) 6e10 Monoclonal Antibody (Covance #SIG-39320) was added, (50 μL/well Eu-6e10 @ 1:10,000, 20 uM EDTA) in Assay Buffer. […] Following 30 to 60 min ambient temperature incubation, the plates were read on an EnVision plate reader (PerkinElmer) using standard DELFIA TRF settings. […]

| Compound | IC50 [1] | IC50 (Table 5, footnote 1: single determination, read-out: Aβ 42B IC50 (nM), IC50 value is from a single determination) |
| --- | --- | --- |
| Cc1cn(-c2ccc3n(c2=O)CCN(CC2(c4ccc(Cl)cc4)CC2)C3=O)cn1 [Example 17, 2-{[1-(4-chlorophenyl)cyclopropyl]methyl}-7-(4-methyl-1H-imidazol-1-yl)-3,4-dihydro-2H-pyrido[1,2-a]pyrazine-1,6-dione, trifluoroacetate salt] | 410 nM |  |
| 2-[(7-chloro-6,8-dimethoxyquinolin-2- yl)methyl]-7-(4-methyl-1H-imidazol- 1-yl)-3,4-dihydro-2H-pyrido[1,2- a]pyrazine-1,6-dione [Example 87] | 150 nM |  |
| 2-[(4′-fluorobiphenyl-3-yl)methyl]- 7-(4-methyl-1H-imidazol-1-yl)- 3,4-dihydro-2H-pyrido[1,2- a]pyrazine-1,6-dione, formate salt [Example 12] |  | 83.4 nM |
| Cc1cn(-c2ccc3n(c2=O)CCN(Cc2nc(C4(c5ccc(Cl)cc5)CCC4)no2)C3=O)cn1 [Example 18, 2-({3-[1-(4-chlorophenyl)cyclobutyl]-1,2,4-oxadiazol-5-yl}methyl)-7-(4-methyl-1H-imidazol-1-yl)-3,4-dihydro-2H-pyrido[1,2-a]pyrazine-1,6-dione, trifluoroacetate salt] | 169 nM |  |
